Test results published in PMC8786932, “Bicyclic azetidines target acute and chronic stages of Toxoplasma gondii by inhibiting parasite phenylalanyl t-RNA synthetase” (Nature Communications, 2022).
Several values for one entry are separate records, joined by “and”; a condition that tells them apart may be missing. Equal values may be shown once. Read-outs that look alike come from different tables or passages of the source.

What was measured:
[1] = system: T. gondii RHΔΔ TgPheRS[V262A]; test: Tachyzoite lytic assay, V262A mutant; assay type: cell-based; conditions: Toxoplasma gondii
Protocol: In vitro cultures of HFF cells containing mature vacuoles were scraped, passaged through 23 g blunt end needles, and filtered using 3 micron filters. Purified parasites were resuspended in 350 μL of cytomix plus[49] and combined in a BTX 4 mm gap cuvette with 30 μL of PCR amplified templates corresponding to mutations of interest and 10 μg of pSAG1:Cas9-GFP U6:sgTgPheRS^[mut] (in 20 μL, 400 μL total volume, see Supplementary Data 1 for sgRNA sequences) prior to electroporation using a BTX ETM 830 electroporator. Amplified templates for TgPheRS mutations were generated from gBlocks (Integrated DNA Technologies, Coralville, IA, USA) that contain a BclI restriction site that replaces the PAM sequence to protect the repair template from being cut by Cas9. […]
Parasite growth on HFF monolayers was monitored using a 96-well plate-based lytic assay modified from a previously described protocol. […] Plates were rinsed with water, air dried, and absorption quantified on the Cytation 3 multi-mode imager at 570 nm wavelength. % parasite growth was calculated as 100−[(OD value for infected cultures at each concentration of compound/average OD value for no compound and no parasite infection) × 100]. EC50 values were calculated based on the mean of three biological replicates with each replicate containing two technical replicates.

TgPheRS[M484I] = target: T1, TgPheRS[M484I] (Toxoplasma gondii, UniProt A0A125YPN6, M484I); test: Enzyme assay, TgPheRS M484I; assay type: biochemical; conditions: for enzyme assay readout (raw): M484I
T1 sequence (A0A125YPN6 1-525 M484I): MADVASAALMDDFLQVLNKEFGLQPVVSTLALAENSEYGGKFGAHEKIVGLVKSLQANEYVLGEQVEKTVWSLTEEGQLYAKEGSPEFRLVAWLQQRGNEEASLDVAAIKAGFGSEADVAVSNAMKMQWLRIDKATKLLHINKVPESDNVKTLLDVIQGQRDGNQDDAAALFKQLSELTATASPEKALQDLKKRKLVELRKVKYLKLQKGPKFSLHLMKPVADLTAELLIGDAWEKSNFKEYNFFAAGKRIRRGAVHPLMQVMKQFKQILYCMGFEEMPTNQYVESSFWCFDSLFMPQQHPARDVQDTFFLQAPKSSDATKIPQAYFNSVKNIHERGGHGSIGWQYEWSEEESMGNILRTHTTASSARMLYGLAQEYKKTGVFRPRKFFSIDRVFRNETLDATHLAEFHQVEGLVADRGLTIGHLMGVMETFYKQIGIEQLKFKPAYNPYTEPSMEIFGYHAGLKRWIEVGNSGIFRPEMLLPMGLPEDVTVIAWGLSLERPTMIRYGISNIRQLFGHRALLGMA
T1 sequence (S8EZ50 1-675 partner): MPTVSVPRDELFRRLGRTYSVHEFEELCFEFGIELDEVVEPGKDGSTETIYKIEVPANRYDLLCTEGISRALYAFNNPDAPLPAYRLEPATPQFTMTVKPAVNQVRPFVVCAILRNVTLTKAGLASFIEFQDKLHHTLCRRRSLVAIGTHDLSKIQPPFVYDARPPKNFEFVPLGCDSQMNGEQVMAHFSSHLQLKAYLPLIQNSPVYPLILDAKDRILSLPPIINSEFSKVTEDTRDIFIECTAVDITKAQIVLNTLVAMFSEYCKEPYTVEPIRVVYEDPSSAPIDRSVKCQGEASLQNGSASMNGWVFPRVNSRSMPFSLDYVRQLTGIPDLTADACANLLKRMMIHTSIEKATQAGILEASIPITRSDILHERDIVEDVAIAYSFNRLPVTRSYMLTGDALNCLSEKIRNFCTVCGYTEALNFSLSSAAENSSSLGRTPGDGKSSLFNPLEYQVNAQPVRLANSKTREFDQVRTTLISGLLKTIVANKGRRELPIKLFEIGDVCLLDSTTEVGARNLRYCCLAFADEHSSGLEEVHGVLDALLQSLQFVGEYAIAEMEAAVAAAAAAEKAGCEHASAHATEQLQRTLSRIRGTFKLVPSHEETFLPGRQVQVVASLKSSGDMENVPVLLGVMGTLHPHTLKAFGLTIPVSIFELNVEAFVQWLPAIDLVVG

## COc1ccc(NC(=O)N2CCCCN3[C@H](CN(C)C)[C@H](c4ccc(C#Cc5ccccc5)cc4)[C@@H]3C2)cc1 [BRD7929]
[1]; 72 h, read-out: EC50, V262A
  EC50: 202 nM
[1]; read-out: EC50 (growth restriction)
  EC50: 159 nM
TgPheRS[M484I]; 0.000050 μM
  enzyme assay readout (raw): 0.2597 and 0.2568 and 0.2561
TgPheRS[M484I]; 0.000500 μM
  enzyme assay readout (raw): 0.2555 and 0.2526 and 0.2544
TgPheRS[M484I]; 0.005000 μM
  enzyme assay readout (raw): 0.2503 and 0.2478 and 0.2487
TgPheRS[M484I]; 0.050000 μM
  enzyme assay readout (raw): 0.2472 and 0.2441 and 0.2410
TgPheRS[M484I]; 0.500000 μM
  enzyme assay readout (raw): 0.2388 and 0.2402 and 0.2378
TgPheRS[M484I]; 5.000000 μM
  enzyme assay readout (raw): 0.2341 and 0.2345 and 0.2337
TgPheRS[M484I]; 50.000000 μM
  enzyme assay readout (raw): 0.2266 and 0.2241
TgPheRS[M484I]; Table S4, M484I, read-out: IC50 (enzyme inhibition)
  IC50: 135 nM
